Assay results taken from ChEMBL document CHEMBL4706727, “Discovery of 2,4-1H-Imidazole Carboxamides as Potent and Selective TAK1 Inhibitors” (ACS Med Chem Lett, 2021).

Test system: HCT-15
Test: Cytotoxicity against TNFalpha-induced human HCT-15 cells assessed as reduction in cell viability preincubated for 2 hrs followed by TNFalpha stimulation and measured after 72 hrs by celltiter-glo assay
Format: functional, cell-based

COc1cc(O)c2c(c1)/C=C/C[C@H](O)[C@H](O)C(=O)/C=C\C[C@H](C)OC2=O
EC50: 2 nM
